Measured values as given in article PMC8742647 (Clinical and Translational Science, 2021).
Read-outs that look alike come from different tables or passages of the source.

Key:
[1] = total clearance after intravenous administration to PXB-mice; assay type: in vivo, PXB‐mice (chimeric mice with humanized livers); settings: intravenous cassette dose 0.1 mg/kg, N = 3, noncompartmental analysis
[2] = total clearance after intravenous administration to rats; assay type: in vivo, Sprague–Dawley rats; settings: intravenous cassette dose 0.1 mg/kg, N = 3
[3] = prediction of CLt,human by single-species allometric scaling from PXB-mice; design: species or system humans; settings: for Predicted CLt,human, PXB‐SSS: scaled from CLt in PXB-mice, exponent 0.75; for Fold error (predicted/observed), PXB‐SSS: predicted/observed CLt,human
[4] = prediction of CLt,human by physiologically based scaling using PXB-mice; design: species or system humans; settings: for Predicted CLt,human, PXB‐PBS: from CLt in PXB-mice, dispersion model, CLint per hepatocyte assumed equal; for Fold error (predicted/observed), PXB‐PBS: predicted/observed CLt,human
[5] = blood‐to‐plasma concentration ratio, ref Table S1; cited from earlier work
[6] = ref Table S1; cited from earlier work
[7] = ref Table S1; cited from earlier work; remark: listed apart in the source
[8] = humans; ref Table S1; cited from earlier work
[9] = prediction of CLt,human by multispecies allometric scaling, rule of exponent; settings: for Predicted CLt,human, ROE: from CLt in rats, monkeys and dogs; for Fold error (predicted/observed), ROE: predicted/observed CLt,human
[10] = test system: cryopreserved human hepatocytes; assay: in vitro metabolic stability assay using cryopreserved human hepatocytes; settings: for turnover during a 4‐h incubation in the human hepatocyte assay: criterion for low‐CLint compounds: no significant turnover (<20%); for % remaining after a 4‐h incubation: cryopreserved human hepatocytes, 0.5 million cells/ml, 0.1 or 1 µmol/l; for CLint per hepatocyte, Humans: in vitro, human hepatocytes, corrected with fraction unbound in hepatocytes and medium
[11] = for Predicted CLt,human, FCIM: from CLt in rats, monkeys and dogs and fu,p ratio rat/human; for Fold error (predicted/observed), FCIM: predicted/observed CLt,human
[12] = fraction unbound in plasma, equilibrium dialysis; assay type: in vitro ADME, humans; settings: fraction unbound in human plasma
[13] = fraction unbound in rat plasma; ref Table S1; cited from earlier work
[14] = prediction of CLt,human by in vitro–in vivo extrapolation; design: species or system humans; settings: for Predicted CLt,human, IVIVE: from in vitro CLint per human hepatocyte, dispersion model
[15] = ref Table S1; cited from earlier work; remark: listed apart in the source
[16] = total clearance after intravenous administration to monkeys; assay type: in vivo, cynomolgus monkeys; settings: intravenous cassette dose 0.1 mg/kg, N = 3

Compound	CLt, PXB‐mice [1] [mL/min/kg]	CLt, Rats [2] [mL/min/kg]	Predicted CLt,human, PXB‐SSS [3] [mL/min/kg]	Predicted CLt,human, PXB‐PBS [4] [mL/min/kg]	R b, Humans [5]	CLt, Monkeys [6] [mL/min/kg]	CLt, Dogs [7] [mL/min/kg]	Observed CLt,human [8] [mL/min/kg]	Predicted CLt,human, ROE [9] [mL/min/kg]	turnover during a 4‐h incubation in the human hepatocyte assay [10] [%]	Predicted CLt,human, FCIM [11] [mL/min/kg]	f u,p, Humans [12]	f u,p, Rats [13]	Predicted CLt,human, IVIVE [14] [mL/min/kg]	CLint per hepatocyte, Humans [10] [µl/min/1 × 10^6 cells]	also measured
COc1ccc2cc([C@H](C)C(=O)O)ccc2c1 [(S)‐Naproxen]	0.556	0.41	0.072	0.085	0.55	0.83	0.04	0.11	0.051							
CC(=O)C[C@@H](c1ccccc1)c1c(O)c2ccccc2oc1=O [(S)‐Warfarin]	0.484	0.21	0.062	0.074	0.55			0.055	0.417	< 20	0.330					% remaining after a 4‐h incubation [10]: 80%; discrepancy between observed and predicted CLt,human, ROE approach [9]: more than 3 fold; discrepancy between observed and predicted CLt,human, FCIM approach [11]: more than 3 fold
Cc1cc(=O)n(-c2ccccc2)n1C [Antipyrine]	4.60	7.86	0.59	0.71	1	11.5	7.22	0.64	3.32	< 20	3.31	0.990	0.690			Fold error (predicted/observed), PXB‐SSS [3]: 0.92; Fold error (predicted/observed), PXB‐PBS [4]: 1.10; discrepancy between observed and predicted CLt,human, ROE approach [9]: more than 3 fold; Fold error (predicted/observed), ROE [9]: 5.19; discrepancy between observed and predicted CLt,human, FCIM approach [11]: more than 3 fold; Fold error (predicted/observed), FCIM [11]: 5.17
COc1ccccc1Oc1c(NS(=O)(=O)c2ccc(C(C)(C)C)cc2)nc(-c2ncccn2)nc1OCCO [Bosentan]	8.78		1.18	1.39	0.48	20.6	1.72	2.1	1.68		5.37			0.68	12.3	CLt, Rats [15]: 16.40 mL/min/kg
Nc1ccc(S(=O)(=O)c2ccc(N)cc2)cc1 [Dapsone]	4.40	6.87	0.60	0.67					0.91	< 20	2.01	0.381				
CN1C(=O)CN=C(c2ccccc2)c2cc(Cl)ccc21 [Diazepam]	42.147		5.68	7.52	0.71	17.90	46.71	0.38	12.46		2.53			0.69		CLt, Rats [15]: 61.51 mL/min/kg
CC(C)N(CCC(C(N)=O)(c1ccccc1)c1ccccn1)C(C)C (centres unmarked) [Disopyramide]	28.86	179.46	3.72	4.63	1.2	19	29	0.9	7.36			0.161	0.610	1.24	3.2	
COc1cc2nc(N3CCN(C(=O)C4COc5ccccc5O4)CC3)nc(N)c2cc1OC (centres unmarked) [Doxazosin]	34.245		4.61	5.65					3.93		6.20	0.066		5.62	41.5	
CNC(=C[N+](=O)[O-])NCCSCc1ccc(CN(C)C)o1 [Ranitidine]	131.02	99.88	16.9	16.4					5.4		11.1	1.000	0.900			
CCOc1ccccc1OC(c1ccccc1)C1CNCCO1 (centres unmarked) [Reboxetine]			2.39	2.79		14.94	22.39	0.82	9.52		1.82			1.37	13.9	CLt, Rats [15]: 61.51 mL/min/kg
CN1C(C(=O)Nc2ccccn2)=C(O)c2sccc2S1(=O)=O [Tenoxicam]	0.2878	0.49	0.039	0.044	0.67		0.104	0.03	0.029	< 20	0.085	0.015	0.030			CLt, Monkeys [16]: 0.061 mL/min/kg; Fold error (predicted/observed), PXB‐SSS [3]: 1.29; Fold error (predicted/observed), PXB‐PBS [4]: 1.46; discrepancy between observed and predicted CLt,human, ROE approach [9]: more than 3 fold; Fold error (predicted/observed), ROE [9]: 0.98; discrepancy between observed and predicted CLt,human, FCIM approach [11]: more than 3 fold; Fold error (predicted/observed), FCIM [11]: 2.83
Cn1c(=O)c2[nH]cnc2n(C)c1=O [Theophylline]	4.70	1.91	0.60	0.72	0.85	1.08	1.73		0.68	< 20						
CC(C)(C)NC[C@H](O)COc1nsnc1N1CCOCC1 [Timolol]	130.05	137.02	16.8	13.7	0.84	13.6		8.5		< 20		0.715	0.760			Fold error (predicted/observed), PXB‐SSS [3]: 1.98; Fold error (predicted/observed), PXB‐PBS [4]: 1.62
CCCCNC(=O)NS(=O)(=O)c1ccc(C)cc1 [Tolbutamide]	0.58	0.39	0.074	0.088					0.040	< 20						CLt, Monkeys [16]: 0.0456 mL/min/kg
CN[C@@H]1C[C@H]2O[C@@](C)([C@@H]1OC)n1c3ccccc3c3c4c(c5c6ccccc6n2c5c31)C(=O)N[C@H]4O [UCN−01, 7‐hydroxystaurosporine]	0.0369	77.37	0.0050	0.0056			10.27	0.0037	1.5640		1.3765	0.003	0.0175	0.6186	83.5	CLt, Monkeys [16]: 3.36 mL/min/kg; Fold error (predicted/observed), PXB‐SSS [3]: 1.35; Fold error (predicted/observed), PXB‐PBS [4]: 1.52; Fold error (predicted/observed), IVIVE ([14]; predicted/observed CLt,human): 167.20; % remaining after a 4‐h incubation [10]: 4%; Fold error (predicted/observed), ROE [9]: 422.70; Fold error (predicted/observed), FCIM [11]: 372.03
